Source: PMC5701060, “Inhibition of the inflammatory response to stress by targeting interaction between PKR and its cellular activator PACT” (Scientific Reports, 2017)

Target: T1, PKR/PACT (GST-PKR-Nter / His-PACT) (Homo sapiens, UniProt O75569+P19525)
T1 construct: gene EIF2AK2; PKR 1-265 (both DRBDs, no kinase domain) with N-terminal GST; full-length PACT with N-terminal His tag; E. coli
Assay: HTRF protein-protein interaction assay
Format: binding

T1 sequence (P19525 1-265): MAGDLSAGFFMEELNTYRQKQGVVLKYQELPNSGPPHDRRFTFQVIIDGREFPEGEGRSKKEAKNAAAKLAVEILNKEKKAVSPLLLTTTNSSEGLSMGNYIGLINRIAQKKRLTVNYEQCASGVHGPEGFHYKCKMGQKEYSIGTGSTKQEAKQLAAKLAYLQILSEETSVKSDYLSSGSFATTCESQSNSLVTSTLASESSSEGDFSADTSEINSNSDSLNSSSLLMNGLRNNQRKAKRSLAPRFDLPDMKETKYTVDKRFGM
T1 sequence (O75569 whole entry, the tested form may be a part): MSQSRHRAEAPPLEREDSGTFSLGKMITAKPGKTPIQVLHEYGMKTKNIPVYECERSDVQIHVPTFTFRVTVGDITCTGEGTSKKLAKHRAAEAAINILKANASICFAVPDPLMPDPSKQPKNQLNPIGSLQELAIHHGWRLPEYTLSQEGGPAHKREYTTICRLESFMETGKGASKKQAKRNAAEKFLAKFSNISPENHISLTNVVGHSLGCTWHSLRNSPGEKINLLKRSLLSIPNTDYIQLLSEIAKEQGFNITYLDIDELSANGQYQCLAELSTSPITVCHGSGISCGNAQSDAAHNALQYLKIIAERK

Compound | IC50 [nM]
O=c1cc(-c2ccc(O)c(O)c2)oc2cc(O)cc(O)c12 [luteolin] | 50000
O=c1c(O)c(-c2cc(O)c(O)c(O)c2)oc2cc(O)cc(O)c12 [myricetin] | 600
O=c1c(O)c(-c2ccc(O)c(O)c2)oc2cc(O)cc(O)c12 [quercetin] | 2000
